Measured values as given in PubChem BioAssay AID298 (DTP/NCI, 2004).
Values joined by “and” are separate entries in the source; they are usually repeats but may differ in a detail not shown here. Equal values may be shown once. Results filed as inconclusive are left out.

Test system: MX-1 breast xenograft, intrarenal, nude mice, tumor weight
Assay: NCI In Vivo Anticancer Drug Screen. Data for tumor model Human Mammary Carcinoma MX-1 Xenograft (intrarenal inoculation) in NU/NU BALB/C (nude) mice
Details: endpoint: mean tumor weight change, higher = larger tumour
Procedure: The antitumor activity of compounds was measured in mice bearing transplantable tumors. Survival or tumor size were measured and the results are expressed as the measurement made in the treated group (T) divided by the measurement made in the vehicle treated control group (C). The tumor model used in this assay is Human Mammary Carcinoma MX-1 Xenograft (intrarenal inoculation) in NU/NU BALB/C (nude) mice

[1] = dose: 150.0 mg/kg/injection, schedule: Q04DX003 (ip), vehicle: Klucel (hydroxypropylcellulose) (HPC)
[2] = dose: 300.0 mg/kg/injection, schedule: Q04DX003 (ip), vehicle: saline
[3] = dose: 600.0 mg/kg/injection, schedule: Q04DX003 (ip), vehicle: saline
[4] = dose: 1200.0 mg/kg/injection, schedule: Q04DX003 (ip), vehicle: saline
[5] = dose: 37.5 mg/kg/injection, schedule: Q04DX003 (sc), vehicle: saline with Tween-80
[6] = dose: 600.0 mg/kg/injection, schedule: Q04DX003 (sc), vehicle: saline

Which T/C (dose: 4.0 mg/kg/injection, schedule: Q04DX003 (ip), vehicle: water) does the source give for `COc1ccc2[nH]c3ccc4cc[n+](CCN5CCC(C6CCN(CC[n+]7ccc8ccc9[nH]c%10ccc(OC)cc%10c9c8c7)CC6)CC5)cc4c3c2c1` here?
The T/C was 100 % of control.

And the T/C (dose: 8.0 mg/kg/injection, schedule: Q04DX003 (ip), vehicle: other)?
Its T/C is 69 % of control.

And the T/C (dose: 8.0 mg/kg/injection, schedule: Q04DX003 (ip), vehicle: water)?
Its T/C is 38 % of control.

And the T/C (dose: 16.0 mg/kg/injection, schedule: Q04DX003 (ip), vehicle: other)?
The T/C was 92 % of control.

And the T/C (dose: 16.0 mg/kg/injection, schedule: Q04DX003 (ip), vehicle: water)?
The T/C was 35 % of control.

And the T/C (dose: 23.04 mg/kg/injection, schedule: Q04DX003 (ip), vehicle: other)?
The T/C was 101 % of control.

And the T/C (dose: 32.0 mg/kg/injection, schedule: Q04DX003 (ip), vehicle: other)?
The T/C was 86 % of control.

What about the T/C (dose: 32.0 mg/kg/injection, schedule: Q04DX003 (ip), vehicle: water) of the same compound?
Its T/C is 35 % of control.

What about the T/C (dose: 38.4 mg/kg/injection, schedule: Q04DX003 (ip), vehicle: other) of the same compound?
Its T/C is 53 % of control.

What about the T/C (dose: 64.0 mg/kg/injection, schedule: Q04DX003 (ip), vehicle: other) of the same compound?
Its T/C is 32 % of control and 42 % of control.

And the T/C (dose: 64.0 mg/kg/injection, schedule: Q04DX003 (ip), vehicle: water)?
Its T/C is 8 % of control.

How did the T/C (dose: 150.0 mg/kg/injection, schedule: Q04DX003 (ip), vehicle: distilled water + Tween-80) turn out when `CCOc1ccc(C(C)c2cc3c(cc2OC)OCO3)cc1` (configuration not stated) was run?
Its T/C is 93 % of control.

And the T/C (dose: 300.0 mg/kg/injection, schedule: Q04DX003 (ip), vehicle: distilled water + Tween-80)?
Its T/C is 56 % of control.

And the T/C (dose: 600.0 mg/kg/injection, schedule: Q04DX003 (ip), vehicle: distilled water + Tween-80)?
Its T/C is 27 % of control.

Which results are given for `COC(=O)NC1C(C)OC(OC2C/C=C(/C)C3C=CC4C(OC5CC(OC6CC(O)C(OC7CC(O)C(OC)C(C)O7)C(C)O6)C(O)C(C)O5)C(C)CC(C)C4C3(C)/C(O)=C3\C(=O)OC4(CC(C)C(CO)=CC4/C=C\2C)C3=O)CC1(C)[N+](=O)[O-]` (configuration not stated)?
T/C (dose: 75.0 mg/kg/injection, schedule: Q04DX003 (ip), vehicle: Klucel (hydroxypropylcellulose) (HPC)): 110 % of control; T/C [1]: 108 % of control

Which results are given for `CN(Cc1cnc2nc(N)nc(N)c2n1)c1ccc(C(=O)NC(CCC(=O)OC(C)(C)C)C(=O)O)cc1` (configuration not stated)?
T/C (dose: 25.0 mg/kg/injection, schedule: Q03HX015 (ip), vehicle: sodium bicarbonate): 62 % of control; T/C (dose: 50.0 mg/kg/injection, schedule: Q03HX015 (ip), vehicle: sodium bicarbonate): 110 % of control; T/C (dose: 100.0 mg/kg/injection, schedule: Q03HX015 (ip), vehicle: sodium bicarbonate): 54 % of control; T/C (dose: 200.0 mg/kg/injection, schedule: Q03HX015 (ip), vehicle: sodium bicarbonate): 116 % of control

Which results are given for `NC(CSSCC(N)C(=O)O)C(=O)O` (configuration not stated)?
T/C [2]: 88 % of control; T/C [3]: 92 % of control; T/C [4]: 104 % of control; T/C (dose: 2400.0 mg/kg/injection, schedule: Q04DX003 (ip), vehicle: saline): 80 % of control

How did the T/C (dose: 100.0 mg/kg/injection, schedule: Q04DX003 (ip), vehicle: suspension in saline) turn out when `CN1COc2c(n(C)c(=O)[nH]c2=O)C1` was run?
The T/C was 85 % of control.

What about the T/C (dose: 200.0 mg/kg/injection, schedule: Q04DX003 (ip), vehicle: saline) of the same compound?
The T/C was 92 % of control.

And the T/C (dose: 200.0 mg/kg/injection, schedule: Q04DX003 (ip), vehicle: suspension in saline)?
Its T/C is 65 % of control.

What about the T/C (dose: 400.0 mg/kg/injection, schedule: Q04DX003 (ip), vehicle: saline) of the same compound?
The T/C was 103 % of control.

What about the T/C (dose: 400.0 mg/kg/injection, schedule: Q04DX003 (ip), vehicle: suspension in saline) of the same compound?
Its T/C is 68 % of control.

What about the T/C (dose: 800.0 mg/kg/injection, schedule: Q04DX003 (ip), vehicle: saline) of the same compound?
The T/C was 102 % of control.

And the T/C (dose: 800.0 mg/kg/injection, schedule: Q04DX003 (ip), vehicle: suspension in saline)?
Its T/C is 72 % of control.

Which T/C (dose: 9.35 mg/kg/injection, schedule: Q04DX003 (ip), vehicle: water) does the source give for `Cc1ccc(NN=O)nc1` here?
The T/C was 11 % of control.

What about the T/C (dose: 9.37 mg/kg/injection, schedule: Q04DX003 (ip), vehicle: water) of the same compound?
The T/C was -9 % of control.

And the T/C (dose: 18.7 mg/kg/injection, schedule: Q04DX003 (ip), vehicle: water)?
Its T/C is 6 % of control.

And the T/C (dose: 18.75 mg/kg/injection, schedule: Q04DX003 (ip), vehicle: water)?
The T/C was -21 % of control.

What about the T/C (dose: 37.5 mg/kg/injection, schedule: Q04DX003 (ip), vehicle: water) of the same compound?
Its T/C is -69 % of control.

For `COc1cc2c[n+](C)c3c(c2cc1OC)Cc1cc2c(cc1-3)OCO2`, which T/C (dose: 75.0 mg/kg/injection, schedule: Q04DX003 (ip), vehicle: saline with Tween-80) is on record?
The T/C was 102 % of control.

And the T/C (dose: 150.0 mg/kg/injection, schedule: Q04DX003 (ip), vehicle: saline with Tween-80)?
Its T/C is 35 % of control.

With `O=CC(O)C(O)C(O)C(O)CO` (configuration not stated) as the compound, how does the T/C (dose: 75.0 mg/kg/injection, schedule: Q04DX003 (ip), vehicle: saline) read?
Its T/C is 72 % of control.

What about the T/C (dose: 150.0 mg/kg/injection, schedule: Q04DX003 (ip), vehicle: saline) of the same compound?
The T/C was 113 % of control.

And the T/C [2]?
Its T/C is 65 % of control.

And the T/C [3]?
The T/C was 93 % of control.

What about the T/C [4] of the same compound?
Its T/C is 59 % of control.

What does the source list for `Nc1ccc(Cn2ccc3c4c(N)nc(N)nc4ccc32)cc1`?
T/C (dose: 18.75 mg/kg/injection, schedule: Q04DX003 (sc), vehicle: saline with Tween-80): 80 % of control; T/C [5]: 75 % of control

Which T/C (dose: 0.62 mg/kg/injection, schedule: Q04DX003 (ip), vehicle: saline) does the source give for `CC1OC2CC(O)C1(O)C1=C2C(O)=C(C(N)=O)C(=N)C1=O` (configuration not stated) here?
The T/C was 99 % of control.

And the T/C (dose: 1.25 mg/kg/injection, schedule: Q04DX003 (ip), vehicle: saline)?
Its T/C is 62 % of control.

What about the T/C (dose: 2.5 mg/kg/injection, schedule: Q04DX003 (ip), vehicle: saline) of the same compound?
The T/C was 101 % of control.

How did the T/C (dose: 37.5 mg/kg/injection, schedule: Q04DX003 (sc), vehicle: saline) turn out when `O=P(O)(NCCCl)NCCCl` was run?
The T/C was 31 % of control.

`O=S(CCCl)CCCl` was tested. Which T/C (dose: 25.0 mg/kg/injection, schedule: Q04DX003 (sc), vehicle: Klucel (hydroxypropylcellulose) (HPC)) did it give?
The T/C was 94 % of control.

And the T/C (dose: 50.0 mg/kg/injection, schedule: Q04DX003 (sc), vehicle: Klucel (hydroxypropylcellulose) (HPC))?
Its T/C is 92 % of control.

For `CC(=O)N(C)O`, which T/C [5] is on record?
Its T/C is 98 % of control.

What about the T/C (dose: 75.0 mg/kg/injection, schedule: Q04DX003 (sc), vehicle: saline with Tween-80) of the same compound?
The T/C was 80 % of control.

What about the T/C (dose: 150.0 mg/kg/injection, schedule: Q04DX003 (sc), vehicle: saline with Tween-80) of the same compound?
The T/C was 69 % of control.

What about the T/C (dose: 300.0 mg/kg/injection, schedule: Q04DX003 (sc), vehicle: saline with Tween-80) of the same compound?
Its T/C is 87 % of control.

What does the source list for `CC(/C=N/N=C(N)N)=N\N=C(N)N`?
T/C (dose: 25.0 mg/kg/injection, schedule: Q01DX010 (sc), vehicle: water): 167 % of control; T/C (dose: 50.0 mg/kg/injection, schedule: Q01DX010 (sc), vehicle: water): 73 % of control; T/C (dose: 100.0 mg/kg/injection, schedule: Q01DX010 (sc), vehicle: water): 43 % of control

Which T/C [6] does the source give for `CCN(CC)CCOCCO` here?
The T/C was 121 % of control.

For `NC(=O)SCC(N)C(=O)O` (configuration not stated), which T/C [2] is on record?
Its T/C is 88 % of control.

And the T/C (dose: 400.0 mg/kg/injection, schedule: Q04DX003 (sc), vehicle: saline)?
The T/C was 49 % of control.

And the T/C [3]?
Its T/C is 80 % of control.

And the T/C [6]?
Its T/C is 37 % of control and 52 % of control.

What about the T/C (dose: 750.0 mg/kg/injection, schedule: Q04DX003 (sc), vehicle: saline) of the same compound?
Its T/C is 53 % of control.

And the T/C (dose: 900.0 mg/kg/injection, schedule: Q04DX003 (sc), vehicle: saline)?
Its T/C is 16 % of control and 38 % of control.

With `CCCCCCn1c(SC)nc(COC(=O)NC)c1COC(=O)NC` as the compound, how does the T/C (dose: 33.7 mg/kg/injection, schedule: Q04DX003 (ip), vehicle: saline) read?
The T/C was 6 % of control.

What about the T/C (dose: 67.5 mg/kg/injection, schedule: Q04DX003 (ip), vehicle: saline) of the same compound?
Its T/C is -37 % of control.

And the T/C (dose: 135.0 mg/kg/injection, schedule: Q04DX003 (ip), vehicle: saline)?
Its T/C is -86 % of control.

And the T/C (dose: 270.0 mg/kg/injection, schedule: Q04DX003 (ip), vehicle: saline)?
Its T/C is -100 % of control.

`COC(=O)C1(F)C(=O)NC(=O)NC1OC` (configuration not stated) was tested. Which T/C [1] did it give?
The T/C was 85 % of control.

And the T/C (dose: 300.0 mg/kg/injection, schedule: Q04DX003 (ip), vehicle: Klucel (hydroxypropylcellulose) (HPC))?
The T/C was 93 % of control.

And the T/C (dose: 600.0 mg/kg/injection, schedule: Q04DX003 (ip), vehicle: Klucel (hydroxypropylcellulose) (HPC))?
The T/C was 43 % of control.

For `CNC(=O)N(C)N=NCCCl`, which T/C (dose: 100.0 mg/kg/injection, schedule: Q04DX003 (ip), vehicle: saline with Tween-80) is on record?
The T/C was 15 % of control.

What about the T/C (dose: 140.0 mg/kg/injection, schedule: Q04DX003 (ip), vehicle: saline with Tween-80) of the same compound?
Its T/C is 10 % of control.

And the T/C (dose: 200.0 mg/kg/injection, schedule: Q04DX003 (ip), vehicle: saline with Tween-80)?
The T/C was 1 % of control.

What about the T/C (dose: 240.0 mg/kg/injection, schedule: Q04DX003 (ip), vehicle: saline with Tween-80) of the same compound?
The T/C was 8 % of control.

What about the T/C (dose: 400.0 mg/kg/injection, schedule: Q04DX003 (ip), vehicle: saline with Tween-80) of the same compound?
The T/C was -76 % of control.
